By IC50 is commonly meant the concentration that gives 50% inhibition. Read a low IC50 as greater potency in that assay.

For the assay, the target named is T1, HSP90α (Homo sapiens, UniProt P07900).
T1 construct: purchased Stressgen Lot B506492
Description: HSP90 binding assay (fluorescent ELISA, competition with biotinylated Geldanamycin). Particulars: reported as range of IC50's. Here is the method:
The biochemical assay is described as follows.
Purified HSP90α […] was purchased from Stressgen Lot B506492. Single use aliquots of the 1.15 mg/ml stock were prepared and stored at −80° C. to avoid multiple freeze-thaw cycles.
A Nunc Maxisorb plate was coated overnight at 4° C. with 200 ng of HSP90/well dissolved in DPBS. The following day the plates were washed with TBST and blocked for 2 h at room temperature with blocking buffer (20 mM HEPES pH 7.3, 1 mM EDTA, 5 mM MgCl2, 100 mM KCl, 5% BSA). Blocking buffer was removed by washing plates with TBST, and test compounds dissolved in assay buffer (20 mM HEPES pH 7.3, 1 mM EDTA, 5 mM MgCl2, 100 mM KCl, 1% BSA) were added to plate. […] The reaction is incubated for 60 minutes at room temperature. […] Competitive inhibitory compounds will block this interaction from occurring.
The reactions were stopped by washing the plate with TBST. The binding of the bio-GM is detected by the addition of an Alkaline Phosphatase tagged Streptavidin molecule. A TBST wash eliminates any unbound detection agent, and the Alkaline Phosphate substrate Attophos is introduced. This substrate generates a fluorescent signal at […] when excited at […]. These plates can be monitored on either a Victor 5 or Perkin Elmer Envision multilabel reader.
In general terms: ELISA stands for enzyme-linked immunosorbent assay.
`COCCCn1nnnc1-c1cc(-c2cccc(C(=O)N3CCN(CCN4CCCC4)CC3)c2)c(O)cc1O` [Compound 72, {2′,4′-Dihydroxy-5′-[1-(3-methoxy-propyl)-1H-tetrazol-5-yl]-biphenyl-3-yl}-[4-(2-pyrrolidin-1-yl-ethyl)-piperazin-1-yl]-methanone] returned an IC50 above 50 µM.

For the molecule `CCS(=O)(=O)N1CCN(C(=O)c2cccc(-c3cc(-c4nnnn4CCCOC)c(O)cc3O)c2)CC1` [Compound 66, {2′,4′-Dihydroxy-5′-[1-(3-methoxy-propyl)-1H-tetrazol-5-yl]-biphenyl-3-yl}-(4-ethanesulfonyl-piperazin-1-yl)-methanone], the IC50 is above 50 µM.

`COCCCn1nnnc1-c1cc(-c2cccc(C(=O)NC(C)CN(C)C)c2)c(O)cc1O` (stereo not shown) [Compound 70, 2′,4′-Dihydroxy-5′-[1-(3-methoxy-propyl)-1H-tetrazol-5-yl]-biphenyl-3-carboxylic acid (2-dimethylamino-1-methyl-ethyl)-amide] had an IC50 above 50 µM. The same measure for `COCCCn1nnnc1-c1cc(-c2cccc(C(=O)OC)c2)c(O)cc1O` [Compound 21]: 10 to 50 µM; for `COCCCn1nnnc1-c1cc(-c2cccc(C(=O)N(C)CCN(C)C)c2)c(O)cc1O` [Compound 63]: above 50 µM.

`CCCCn1nnnc1-c1cc(-c2cccc(C(=O)N3CCN(CCCN4CCOCC4)CC3)c2)c(O)cc1O` [Compound 56, [5′-(1-Butyl-1H-tetrazol-5-yl)-2′,4′-dihydroxy-biphenyl-3-yl]-[4-(3-morpholin-4-ylpropyl)-piperazin-1-yl]-methanone] registered an IC50 above 50 µM.

The molecule `COCCn1nnnc1-c1cc(-c2cc(C(C)C)ccc2OC)c(O)cc1O` [Compound 9] displayed a 50% inhibitory concentration (IC50) of 1 to 10 µM.

In turn, `COCCn1nnnc1-c1cc(-c2cc(C(F)(F)F)ccc2F)c(O)cc1O` [Compound 10, 2′-Fluoro-5-[1-(2-methoxy-ethyl)-1H-tetrazol-5-yl]-5′-trifluoromethyl-biphenyl-2,4-diol] showed an IC50 above 50 µM. `COc1ccc(C(C)C)cc1-c1cc(-c2nnnn2C2CCN(C(=O)OC(C)(C)C)CC2)c(O)cc1O` [Compound 43] showed an IC50 of 10 to 50 µM. Molecule `COCCn1nnnc1-c1cc(-c2cccc(OC(F)(F)F)c2)c(O)cc1O` [Compound 11] had an IC50 above 50 µM.

For `COCCCn1nnnc1-c1cc(-c2ccc(C(F)(F)F)cc2)c(O)cc1O` [Compound 18, 5-[1-(3-methoxy-propyl)-1H-tetrazol-5-yl]-4′-trifluoromethyl-biphenyl-2,4-diol], the IC50 is above 50 µM. The same measure for `CCCCn1nnnc1-c1cc(-c2cccc(C(=O)N3CCCC(C(=O)N(CC)CC)C3)c2)c(O)cc1O` (stereo not shown) [Compound 51]: above 50 µM; for `COc1ccc(C(C)C)cc1-c1cc(-c2nnnn2-c2ccccc2)c(O)cc1O` [Compound 120]: below 1 µM. To `CCCCn1nnnc1-c1cc(-c2cccc(C(=O)NC(C)CN(C)C)c2)c(O)cc1O` (stereo not shown) [Compound 60, 5′-(1-Butyl-1H-tetrazol-5-yl)-2′,4′-dihydroxy-biphenyl-3-carboxylic acid (2-dimethylamino-1-methyl-ethyl)-amide] belongs above 50 µM; to “5′-(1-Butyl-1H-tetrazol-5-yl-2′,4′-dihydroxy-biphenyl-3-carboxylic acid (3-dimethylamino-propyl)-methyl-amide [Compound 52]”, above 50 µM. To `COc1ccc(C(C)C)cc1-c1cc(-c2nnnn2C2CCN(C(=O)OC(C)(C)C)C2)c(O)cc1O` (stereo not shown) [Compound 42, 3-[5-(4,6-Dihydroxy-5′-isopropyl-2′-methoxy-biphenyl-3-yl)-tetrazol-1-yl]-pyrrolidine-1-carboxylic Acid Tert-Butyl Ester] belongs 10 to 50 µM. For the molecule `CCCCn1nnnc1-c1cc(-c2cccc(C(=O)NCCc3cccc(OC)c3)c2)c(O)cc1O` [Compound 57], the IC50 was above 50 µM. `COCCCn1nnnc1-c1cc(-c2cccc(C(=O)NCCCN3CCOCC3)c2)c(O)cc1O` [Compound 67, 2′,4′-Dihydroxy-5′-[1-(3-methoxy-propyl)-1H-tetrazol-5-yl]-biphenyl-3-carboxylic Acid (3-morpholin-4-yl-propyl)-amide] gave an IC50 above 50 µM.

As to `CCc1ccccc1-c1cc(-c2nnnn2CCCOC)c(O)cc1O` [Compound 75, 2′-Ethyl-5-[1-(3-methoxy-propyl)-1H-tetrazol-5-yl]-biphenyl-2,4-diol], the IC50 is above 50 µM. The same measure for `COCCCn1nnnc1-c1cc(-c2ccc(Oc3ccccc3)cc2)c(O)cc1O` [Compound 74, 5-[1-(3-Methoxy-propyl)-1H-tetrazol-5-yl]-4′-phenoxy-biphenyl-2,4-diol]: above 50 µM; for `COc1ccc(C(=O)N2CCC(n3nnnc3-c3cc(-c4cc(C(C)C)ccc4OC)c(O)cc3O)CC2)cc1` [Compound 37, {4-[5-(4,6-dihydroxy-5′-isopropyl-2′-methoxy-biphenyl-3-yl)-tetrazol-1-yl]-piperidin-1-yl}-(4-methoxy-phenyl)-methanone]: 1 to 10 µM. To `COc1ccc(C(C)C)cc1-c1cc(-c2nnnn2C2CCNCC2)c(O)cc1O` [Compound 41] belongs 1 to 10 µM.

As to `CCCCn1nnnc1-c1cc(-c2cccc(C(=O)N(CCO)CC(C)CC)c2)c(O)cc1O` (stereo not shown) [Compound 61], the IC50 was above 50 µM. Take `CCCCn1nnnc1-c1cc(-c2cccc(C(=O)NCCCN3CCOCC3)c2)c(O)cc1O` [Compound 54]: the IC50 was above 50 µM. To `CCCCn1nnnc1-c1cc(-c2cccc(C(=O)N3CCC(N4CCCC4)CC3)c2)c(O)cc1O` [Compound 49, [5′-(1-Butyl-1H-tetrazol-5-yl)-2′,4′-dihydroxy-biphenyl-3-yl]-(4-pyrrolidin-1-yl-piperidin-1-yl)-methanone] belongs above 50 µM; to `COc1ccc(C(C)C)cc1-c1cc(-c2nnnn2C2CCN(C(=O)CC(C)C)CC2)c(O)cc1O` [Compound 40, 1-{4-[5-(4,6-Dihydroxy-5′-isopropyl-2′-methoxy-biphenyl-3-yl)-tetrazol-1yl]-piperidin-1-yl}-3-methyl-butan-1-one], 10 to 50 µM. To `CCCCn1nnnc1-c1cc(-c2cccc(C(=O)NCCCN3CCCC3)c2)c(O)cc1O` [Compound 55] belongs above 50 µM; to `COCCCn1nnnc1-c1cc(-c2cccc(OC(F)(F)F)c2)c(O)cc1O` [Compound 17], 1 to 10 µM. To `CCNC(=O)N1CCC(n2nnnc2-c2cc(-c3cc(C(C)C)ccc3OC)c(O)cc2O)CC1` [Compound 39] belongs 1 to 10 µM; to `COCCCn1nnnc1-c1cc(-c2cccc(C(=O)NCCC3CCCN3C)c2)c(O)cc1O` (stereo not shown) [Compound 68, 2′,4′-Dihydroxy-5′-[1-(3-methoxypropyl)-1H-tetrazol-5-yl]-biphenyl-3-carboxylic acid [2-(1-methyl-pyrrolidin-2-yl)-ethyl]-amide], above 50 µM. In turn, “4-[1-(3-Methoxy-propyl)-1H-tetrazol-5-yl]-6-naphthalen-2-yl-benzene-1,3-diol [Compound 78]” showed an IC50 of 10 to 50 µM. To `COCCCn1nnnc1-c1cc(-c2cccc(C(=O)N(C)CCCN(C)C)c2)c(O)cc1O` [Compound 64, 2′,4′-Dihydroxy-5′-[1-(3-methoxy-propyl)-1H-tetrazol-5-yl]-biphenyl-3-carboxylic Acid (3-dimethylamino-propyl)-methyl-amide] belongs above 50 µM; to `CCCCn1nnnc1-c1cc(-c2cccc(C(=O)NC(C)COC)c2)c(O)cc1O` (stereo not shown) [Compound 48, 5′-(1-Butyl-1H-tetrazol-5-yl)-2′,4′-dihydroxy-biphenyl-3-carboxylic acid (2-methoxy-1-methyl-ethyl)-amide], above 50 µM; to “5-[1-(3,3-Dimethyl-butyl)-1H-tetrazol-5-yl]-5′-isopropyl-2′-methoxy-biphenyl-2,4-diol [Compound 96]”, 1 to 10 µM. Molecule `CCC(C)CN(CCO)C(=O)c1cccc(-c2cc(-c3nnnn3CCCOC)c(O)cc2O)c1` (stereo not shown) [Compound 71] had an IC50 above 50 µM. To `COCCCn1nnnc1-c1cc(-c2cccc(C(=O)NCCCN(C)C)c2)c(O)cc1O` [Compound 65] belongs above 50 µM.

`COCCCn1nnnc1-c1cc(-c2cccc(C(=O)N3CCN(CC4CCN(C)CC4)CC3)c2)c(O)cc1O` [Compound 69] registered an IC50 above 50 µM. Molecule `CCN1CCC(n2nnnc2-c2cc(-c3cc(C(C)C)ccc3OC)c(O)cc2O)CC1` [Compound 38] had an IC50 of 1 to 10 µM. The same measure for `COCCCn1nnnc1-c1cc(-c2cccc(C(=O)NC(C)COC)c2)c(O)cc1O` (stereo not shown) [Compound 62]: above 50 µM; for `CCCCn1nnnc1-c1cc(-c2cccc(C(=O)NCCC3CCCN3C)c2)c(O)cc1O` (stereo not shown) [Compound 59]: above 50 µM. The same measure for `CCOc1cccc(-c2cc(-c3nnnn3CCCOC)c(O)cc2O)c1` [Compound 77, 3′-Ethoxy-5-[1-(3-methoxy-propyl)-1H-tetrazol-5-yl]-biphenyl-2,4-diol]: 10 to 50 µM. The same measure for `COCCCn1nnnc1-c1cc(-c2ccc(F)cc2F)c(O)cc1O` [Compound 84]: above 50 µM; for `COCCCn1nnnc1-c1cc(-c2cccc(C(C)C)c2)c(O)cc1O` [Compound 76, 3′-Isopropyl-5-[1-(3-methoxy-propyl)-1H-tetrazol-5-yl]-biphenyl-2,4-diol]: 10 to 50 µM.

(Values after US7932279B2 (ArQule, Inc., priority 2007, dated 2011).)
